Values quoted from earlier work, collected in patent US20170258746A1, “ACETIC ACID/THYMOL COMPOSITIONS AND THEIR USE IN THE TREATMENT OF ONYCHOMYCOSIS” (Dr. Paul's Enterprises, LLC, priority 2008, published 2017).

Columns and labels:
[1] = oral, in children; American Family Physician vol. 63, no. 4, Feb. 15, 2001
[2] = test system: onychomycosis; conditions: oral, Arch. Dermatol. 134(12) (December 1998)

| SMILES | toxicity [1] | disease-free nail, % of patients [2] |
| --- | --- | --- |
| COC1=CC(=O)C[C@@H](C)[C@]12Oc1c(Cl)c(OC)cc(OC)c1C2=O [griseofulvin] | some level of toxicity | – |
| CN(C/C=C/C#CC(C)(C)C)Cc1cccc2ccccc12 [terbinafine] | – | 35-50% |
